Converted amounts (≈) assume the structure as drawn. Square brackets hold non-standard residues; d marks the D form. Peptide text beside a SMILES is read from it. * marks the point of attachment. Myristoyl = CCCCCCCCCCCCCC(=O)*; X2 = NC[C@H](Cc1ccc(O)cc1)N*; dOrn = NCCC[C@@H](N)C(=O)O; X1 = CC(C)[C@H](O)CC(=O)*; Orn = NCCC[C@H](N)C(=O)O; βAla = NCCC(=O)O
Legend:
[1] = system: Candida albicans ATCC 64550; assay type: cell-based; settings: ATCC 64550, 16 h
Experimental: (§1) All MIC assays were performed two independent times (n = 2) in 96‐well plates using a broth micro‐dilution method. The lowest concentration of that inhibited visible microbial growth was recorded as the MIC value.
(§2) For fungal strains, overnight cultures were diluted 2000‐fold in YPD broth. 100 µL of diluted cells was mixed with 100 µL of YPD broth containing each peptide ranging from […] 64 to 0.125 µg mL^−1 at 2‐fold serial dilutions.

[2] = system: Salmonella enterica ATCC 14028; assay: microbe, parasite or virus in culture; assay type: cell-based; settings: ATCC 14028, 16 h
Experimental: as §1
(§3) For most of bacterial strains, overnight cultures were diluted 5000‐fold in LB broth. For E. faecium and S. aureus, overnight cultures were diluted 1000‐ and 10000‐fold in LB broth, respectively. 100 µL of diluted cells was mixed with 100 µL of LB broth containing each peptide ranging from 64 to 0.125 µg mL^−1 at 2‐fold serial dilutions.

[3] = system: Vibrio alginolyticus XSBZ14; assay: microbe, parasite or virus in culture; assay type: cell-based; settings: 16 h
Experimental: as §1, §3

[4] = system: Acinetobacter baumannii 1104008; assay: microbe, parasite or virus in culture; assay type: cell-based; settings: for MIC Acinetobacter baumannii 1104008: Table S11, LB broth, 37 °C, 16 h, n = 2
Experimental: as §1, §3

[5] = system: Acinetobacter baumannii ATCC 19606; assay: microbe, parasite or virus in culture; assay type: cell-based; settings: ATCC 19606, 16 h
Experimental: as §1, §3

[6] = system: Salmonella typhimurium LXX; assay: microbe, parasite or virus in culture; assay type: cell-based; settings: murium LXX, 16 h
Experimental: as §1, §3

[7] = system: Enterococcus faecium 35682; assay: microbe, parasite or virus in culture; assay type: cell-based; settings: 35682, 16 h
Experimental: as §1, §3

[8] = system: Klebsiella pneumoniae CRKP 5452; assay: microbe, parasite or virus in culture; assay type: cell-based; settings: for MIC Klebsiella pneumoniae CRKP 5452: Table S11, LB broth, 37 °C, 16 h, n = 2
Experimental: as §1, §3

[9] = system: Staphylococcus aureus Newman; assay: microbe, parasite or virus in culture; assay type: cell-based; settings: Newman, 16 h
Experimental: as §1, §3

[10] = system: Staphylococcus aureus ATCC 25923; assay: microbe, parasite or virus in culture; assay type: cell-based; settings: ATCC 25923, 16 h
Experimental: as §1, §3

[11] = system: Acinetobacter baumannii P53; assay: microbe, parasite or virus in culture; assay type: cell-based; settings: Table S11; LB broth, 37 °C, 16 h, n = 2
Experimental: as §1, §3

[12] = system: Klebsiella pneumoniae CRKP HS11286; assay: microbe, parasite or virus in culture; assay type: cell-based; settings: CRKP HS11286, 16 h
Experimental: as §1, §3

[13] = system: Staphylococcus aureus USA300; assay: microbe, parasite or virus in culture; assay type: cell-based; settings: for MIC Staphylococcus aureus USA300: Table S11, LB broth, 37 °C, 16 h, n = 2
Experimental: as §1, §3

[14] = system: Streptococcus pyogenes ATCC 19615; assay: microbe, parasite or virus in culture; assay type: cell-based; settings: for MIC Streptococcus pyogenes ATCC 19615: Table S11, LB broth, 37 °C, 16 h, n = 2
Experimental: as §1, §3

[15] = system: Pseudomonas aeruginosa ATCC 9027; assay: microbe, parasite or virus in culture; assay type: cell-based; settings: ATCC 9027, 16 h
Experimental: as §1, §3

[16] = system: Klebsiella pneumoniae ATCC 13883; assay: microbe, parasite or virus in culture; assay type: cell-based; settings: ATCC 13883, 16 h
Experimental: as §1, §3

[17] = system: Pseudomonas aeruginosa PAO1; assay: microbe, parasite or virus in culture; assay type: cell-based; settings: PAO1, 16 h
Experimental: as §1, §3

Enterococcus faecalis 28 = assay: microbe, parasite or virus in culture; assay type: cell-based; settings: 28, 16 h
Experimental: as §1, §3

[18] = system: Klebsiella pneumoniae NCTC 5056; assay: microbe, parasite or virus in culture; assay type: cell-based; settings: NCTC 5056, 16 h
Experimental: as §1, §3

[19] = system: Staphylococcus aureus ATCC 6538; assay: microbe, parasite or virus in culture; assay type: cell-based; settings: ATCC 6538, 16 h
Experimental: as §1, §3

[20] = system: Enterococcus faecalis ATCC 29212; assay: microbe, parasite or virus in culture; assay type: cell-based; settings: ATCC 29212, 16 h
Experimental: as §1, §3

[21] = system: Acinetobacter baumannii ATCC 17978; assay: microbe, parasite or virus in culture; assay type: cell-based; settings: ATCC 17978, 16 h
Experimental: as §1, §3

Enterococcus faecalis 26 = assay: microbe, parasite or virus in culture; assay type: cell-based; settings: 26, 16 h
Experimental: as §1, §3

[22] = system: Streptococcus mutans ATCC 25175; assay: microbe, parasite or virus in culture; assay type: cell-based; settings: ATCC 25175, 16 h
Experimental: as §1, §3

Escherichia coli DH5α = assay: MIC assay (broth micro-dilution); assay type: cell-based; settings: Table S11; LB broth, 37 °C, 16 h, n = 2
Experimental: as §1, §3

B. subtilis ATCC 23857 = assay: MIC assay (broth micro-dilution); assay type: cell-based; settings: Table S11; LB broth, 37 °C, 16 h, n = 2
Experimental: as §1, §3

Shigella Castellani LXX = assay: MIC assay (broth micro-dilution); assay type: cell-based; settings: Table S11; LB broth, 37 °C, 16 h, n = 2
Experimental: as §1, §3

[23] = system: Candida albicans ATCC 10231; assay: MIC assay (YPD broth); assay type: cell-based; settings: for MIC Candida albicans ATCC 10231: Table S11, YPD broth, 30 °C, 16 h, n = 2
Experimental: as §1, §2

[24] = system: four Gram-negative bacteria, four Gram-positive bacteria, and one fungal pathogen; assay: Initial antimicrobial assay of 17 synAQUs; assay type: cell-based; settings: MIC up to 64 µg mL^−1, Figure 3a
Experimental: as §1, §3, §2

HeLa cells = assay: Cytotoxicity assay (CCK-8); assay type: cell-based, human; settings: 48 h
Experimental: The cytotoxicity of each synAQU peptide was assessed using a cell counting kit‐8 (CCK‐8) assay. HeLa cells were first seeded in a 96‐well flat‐bottom microtiter plate with a density of ∼5000 cells per well and incubated in the DMEM medium supplemented with 10% FBS at 37 °C with 5% CO2 for 24 h. […] All cytotoxicity experiments were done in triplicate (n = 3) and repeated two independent times (n = 2).

[25] = parameters: method as in earlier work; settings: Figure S20; cited from earlier work
[26] = parameters: method as in earlier work; settings: Figure S20; cited from earlier work; remark: listed apart in the source
[27] = system: Gram negative and positive bacteria; parameters: method as in 2 sources, one per row (each row's own in cited_ref): ref 49 (a number printed in a supplementary file, which may have a reference list of its own: not looked up in the article's list) ||| ref 50 (a number printed in a supplementary file, which may have a reference list of its own: not looked up in the article's list); settings: Figure S20, known paired peptides; cited from earlier work

Compound | MIC Candida albicans ATCC 64550 [1] [mg/L] | MIC Salmonella enterica ATCC 14028 [2] [mg/L] | MIC Vibrio alginolyticus XSBZ14 [3] [mg/L] | MIC Acinetobacter baumannii 1104008 [4] [mg/L] | MIC Acinetobacter baumannii ATCC 19606 [5] [mg/L] | MIC Salmonella typhimurium LXX [6] [mg/L] | MIC Enterococcus faecium 35682 [7] [mg/L] | MIC Klebsiella pneumoniae CRKP 5452 [8] [mg/L] | MIC Staphylococcus aureus Newman [9] [mg/L] | MIC Staphylococcus aureus ATCC 25923 [10] [mg/L] | MIC Acinetobacter baumannii P53 [11] [mg/L] | MIC Klebsiella pneumoniae CRKP HS11286 [12] [mg/L] | MIC Staphylococcus aureus USA300 [13] [mg/L] | MIC Streptococcus pyogenes ATCC 19615 [14] [mg/L] | MIC Pseudomonas aeruginosa ATCC 9027 [15] [mg/L] | MIC Klebsiella pneumoniae ATCC 13883 [16] [mg/L] | MIC Pseudomonas aeruginosa PAO1 [17] [mg/L] | MIC Enterococcus faecalis 28 (Enterococcus faecalis 28) [mg/L] | MIC Klebsiella pneumoniae NCTC 5056 [18] [mg/L] | MIC Staphylococcus aureus ATCC 6538 [19] [mg/L] | other results
CC[C@H](C)[C@H](NC(=O)[C@@H](NC(=O)[C@@H](C)NC(=O)[C@H](C)NC(=O)[C@@H](NC(=O)C[C@@H](O)C(C)C)C(C)C)[C@@H](C)CC)C(=O)NCCC(=O)N[C@@H](CC(C)C)C(=O)N[C@H](C)C(=O)N[C@H](C(=O)N[C@H](CN)Cc1ccc(O)cc1)[C@@H](C)CC [synAQU4-L] (X1-VA[dA]II[βAla]L[dA]I-X2) | > 64 | > 64 | > 64 | > 64 | > 64 | > 64 | > 64 | > 64 | > 64 | > 64 | > 64 | > 64 | > 64 | 4 (≈ 3.58 µM) | > 64 | > 64 | > 64 | > 64 | > 64 | > 64 | MIC Enterococcus faecalis ATCC 29212 [20]: > 64 mg/L; MIC Acinetobacter baumannii ATCC 17978 [21]: > 64 mg/L; MIC Enterococcus faecalis 26 (Enterococcus faecalis 26): > 64 mg/L; MIC Streptococcus mutans ATCC 25175 [22]: 16 mg/L (≈ 14.3 µM); MIC Escherichia coli DH5α (Escherichia coli DH5α): > 64 mg/L; MIC Bacllussubtilis ATCC 23857 (B. subtilis ATCC 23857): > 64 mg/L; MIC Shigella Castellani LXX (Shigella Castellani LXX): > 64 mg/L; MIC Candida albicans ATCC 10231 [23]: > 64 mg/L
CCCCCCCCCCCCCC(=O)N[C@@H](CCCN)C(=O)N[C@H](Cc1ccc(O)cc1)C(=O)N[C@@H](C(=O)N[C@@H](C(=O)N[C@H](CCCN)C(=O)N[C@@H](CCCN)C(=O)N[C@@H](C(=O)N[C@H](C(=O)N[C@@H](CC(C)C)C(=O)N[C@H](CCCN)C(=O)N[C@H](C(=O)N[C@@H](C)C(=O)O)[C@@H](C)O)[C@@H](C)CC)C(C)C)[C@H](C)O)C(C)C [synAQU6-L] (Myristoyl-[Orn][dY][dV][dT][dOrn][Orn][dV]IL[dOrn]TA-OH) | > 64 | > 64 | > 64 | > 64 | > 64 | > 64 | > 64 | > 64 | > 64 | > 64 | > 64 | > 64 | > 64 | 2 (≈ 1.29 µM) | 32 (≈ 20.7 µM) | > 64 | > 64 | > 64 | > 64 | 32 (≈ 20.7 µM) | MIC Enterococcus faecalis ATCC 29212 [20]: > 64 mg/L; MIC Acinetobacter baumannii ATCC 17978 [21]: 32 mg/L (≈ 20.7 µM); MIC Enterococcus faecalis 26 (Enterococcus faecalis 26): 4 mg/L (≈ 2.59 µM); MIC Streptococcus mutans ATCC 25175 [22]: 4 mg/L (≈ 2.59 µM); MIC Bacllussubtilis ATCC 23857 (B. subtilis ATCC 23857): 8 mg/L (≈ 5.17 µM); MIC Shigella Castellani LXX (Shigella Castellani LXX): > 64 mg/L; MIC Candida albicans ATCC 10231 [23]: > 64 mg/L
CCCCCCCCCCCCCC(=O)N[C@@H](CCCCN)C(=O)N[C@@H](CCCNC(=N)N)C(=O)N[C@@H](CC(C)C)C(=O)N[C@@H](C)C(=O)N[C@@H](CC(C)C)C(=O)N[C@H](C(=O)N[C@@H](CC(=O)O)C(=O)N[C@@H](CC(=O)O)C(=O)N[C@H](C(=O)N[C@@H](CC(N)=O)C(=O)N[C@H](C(=O)N[C@H](Cc1ccccc1)C(=O)N[C@@H](CC(N)=O)C(=O)O)C(C)C)C(C)C)[C@@H](C)O [synAQU7-L] (Myristoyl-KRLALTDDVNV[dF]N-OH) |  |  |  |  |  |  |  |  |  |  |  |  |  |  |  |  |  |  |  |  | activity against all nine tested strains [24]: not active; MIC (μg/mL) Hela (HeLa cells): > 64 µg/mL; MIC (μg/mL) A. baumannii 1104008 ([4]; 1104008, 16 h): > 64 µg/mL; MIC (μg/mL) K. pneumoniae CRKP 5452 ([8]; CRKP 5452, 16 h): > 64 µg/mL; MIC (μg/mL) S. aureus USA300 ([13]; USA300, 16 h): > 64 µg/mL; MIC (μg/mL) S. pyogenes ATCC 19615 ([14]; ATCC 19615, 16 h): > 64 µg/mL; MIC (μg/mL) C. albicans ATCC 10231 ([23]; ATCC 10231, 16 h): > 64 µg/mL
Bacaucin |  |  |  |  |  |  |  |  |  |  |  |  |  |  |  |  |  |  |  |  | hemolytic activity [25]: He mo l y t i c; cytotoxic activity [26]: Cyt ot oxic; antibacterial activity [27]: Broad antibacterial activity

From publication PMC12677607, “Identification of a Pair of Linear or Cyclic Naturally Inspired Bifunctional Lipopeptide Antibiotics That Overcome Antimicrobial Resistance” (Advanced Science, 2025)
